The values below come from patent US9675615B2, “2,3-dihydroquinazolin-4(1H)-one derivatives for use in the treatment of viral infections” (priority 2012, dated 2017).

In experiment [1] the test system is recombinant Ebolavirus that encodes green fluorescent protein. In words: microbe, parasite or virus in culture. It counts as cell-based. The following applies: read-out: IC50 (concentration that results in 50% inhibition of infection).
In the next experiment the test system is Ebolavirus. The following applies: cited from earlier work.
Another experiment concerns filoviruses. The following applies: cited from earlier work.

Each structure is given as a SMILES string. Where two headings read alike, the source gives them in different places.

Consider `O=C1c2ccccc2NC(c2ccc(-c3ccccn3)s2)N1c1ccccc1` (centres unmarked) [Compound 19, 3-Phenyl-2-(5-(pyridin-2-yl)thiophen-2-yl)-2,3-dihydroquinazolin-4(1H)-one], for which the IC50 in experiment [1] (Orthoebolavirus, HeLa) worked out at 5.6 µM.
With `O=C1c2ccccc2NC(c2ccc(-c3ccco3)s2)N1c1ccccc1` (centres unmarked) [Compound 20, 2-(5-(Furan-2-yl)thiophen-2-yl)-3-phenyl-2,3-dihydroquinazolin-4(1H)-one], the IC50 in experiment [1] (Orthoebolavirus, HeLa) came out at 5.4 µM.
For the compound `O=C1c2ccccc2NC(c2ccc(-c3cccs3)s2)N1c1ccccc1` (centres unmarked) [Compound 18, 2-([2,2′-Bithiophen]-5-yl)-3-phenyl-2,3-dihydroquinazolin-4(1H)-one], in experiment [1] (Orthoebolavirus, HeLa), the IC50 was found to be 4.7 µM.
Same read-out and setting: next, `CSc1ccc(C2Nc3ccccc3C(=O)N2c2ccccc2)s1` (centres unmarked) [Compound 17, 2-(5-(Methylthio)thiophen-2-yl)-3-phenyl-2,3-dihydroquinazolin-4(1H)-one]: 7.4 µM.
As for `CC(Cc1ccc(O)c(O)c1)C(C)Cc1ccc(O)c(O)c1` (centres unmarked) [NDGA], the “effect on Ebolavirus infectivity” value in the experiment on Ebolavirus is “loss of infectivity”.
Regarding `Cc1nc(-c2ccc(C3Nc4ccccc4C(=O)N3c3ccccc3)s2)cs1` (centres unmarked) [Compound 21, 2-(5-(2-Methylthiazol-4-yl)thiophen-2-yl)-3-phenyl-2,3-dihydroquinazolin-4(1H)-one], in experiment [1] (Orthoebolavirus, HeLa), the IC50 came to 2.3 µM.
Still for that read-out and setting: next, `CCc1ccc(C2Nc3ccccc3C(=O)N2c2ccccc2)s1` (centres unmarked) [Compound 7, 2-(5-Ethylthiophen-2-yl)-3-phenyl-2,3-dihydroquinazolin-4(1H)-one]: 11 µM.
As to `Cc1ccc(C2Nc3ccccc3C(=O)N2c2ccccc2)s1` (centres unmarked) [Retro-2^cycl, reference compound], the IC50 in experiment [1] was determined as 42.5 µM.
On to `C[C@H]1CCC/C=C/[C@@H]2C[C@H](O)C[C@H]2[C@H](O)/C=C/C(=O)O1` [Brefeldin A], for which, in the experiment on Ebolavirus, the “effect on Ebolavirus infectivity” value is listed as “loss of infectivity”.
With `NC(=O)c1ncn([C@@H]2O[C@H](CO)[C@@H](O)[C@H]2O)n1` [ribavirin], the efficacy against filoviruses entry in the experiment on filoviruses is reported as “ineffective”.
Take `O=C1c2ccccc2NC(c2ccc(-c3ccccc3)s2)N1c1ccccc1` (centres unmarked) [Compound 13, 3-Phenyl-2-(5-phenylthiophen-2-yl)-2,3-dihydroquinazolin-4(1H)-one]: the IC50 in experiment [1] (Orthoebolavirus, HeLa) came to 4.2 µM.
